Data published in ChEMBL document CHEMBL4359906, “Design and synthesis of new N-terminal fatty acid modified-antimicrobial peptide analogues with potent in vitro biological activity” (Eur J Med Chem, 2019).
Active and inactive are the calls of the source. The calls are words filed in the database; no cut-off is given here.

Key:
[1] = tested on: Staphylococcus aureus; test: Antibacterial activity against Staphylococcus aureus ATCC 25923 after 18 hrs in presence of KCl by CLSI based broth microdilution method (reference value: 128 microM); assay type: functional; conditions: ATCC 25923, 18 h
[2] = tested on: Staphylococcus aureus; test: Antibacterial activity against Staphylococcus aureus ATCC 25923 after 18 hrs in presence of NaCl by CLSI based broth microdilution method (reference value: 128 microM); assay type: functional; conditions: ATCC 25923, 18 h
[3] = tested on: DNA; test: Binding affinity to Escherichia coli ATCC 25922 genomic DNA at 0.5 x MIC after 30 mins by agarose gel electrophoresis; assay type: nucleic-acid assay
[4] = tested on: Staphylococcus aureus; test: Antibacterial activity against Staphylococcus aureus ATCC 25923 after 18 hrs in presence of MgCl2 by CLSI based broth microdilution method (reference value: 128 microM); assay type: functional; conditions: ATCC 25923, 18 h
[5] = tested on: DNA; test: Binding affinity to Escherichia coli ATCC 25922 genomic DNA at 1 x MIC after 30 mins by agarose gel electrophoresis; assay type: nucleic-acid assay
[6] = tested on: Escherichia coli; test: Antimicrobial activity against Escherichia coli ATCC 25922 at 1 mM preincubated for 6 hrs in presence of 2000 ug/ml chymotrypsin and measured after 18 hrs by microplate reader analysis; assay type: functional, organism-based
[7] = tested on: DNA; test: Binding affinity to Escherichia coli ATCC 25922 genomic DNA at 8 x MIC after 30 mins by agarose gel electrophoresis; assay type: nucleic-acid assay
[8] = tested on: Staphylococcus aureus; test: Antibacterial activity against Staphylococcus aureus ATCC 25923 after 18 hrs in presence of NaCl by CLSI based broth microdilution method (reference value: 32 microM); assay type: functional; conditions: ATCC 25923, 18 h
[9] = tested on: DNA; test: Binding affinity to Escherichia coli ATCC 25922 genomic DNA at 4 x MIC after 30 mins by agarose gel electrophoresis; assay type: nucleic-acid assay
[10] = tested on: Escherichia coli; test: Antibacterial activity against Escherichia coli ATCC 25922 after 18 hrs in presence of MgCl2 by CLSI based broth microdilution method (reference value: 64 microM); assay type: functional; conditions: ATCC 25922, 18 h
[11] = tested on: Staphylococcus aureus; test: Antibacterial activity against Staphylococcus aureus ATCC 25923 after 18 hrs in presence of KCl by CLSI based broth microdilution method (reference value: 32 microM); assay type: functional; conditions: ATCC 25923, 18 h
[12] = tested on: Escherichia coli; test: Antibacterial activity against Escherichia coli ATCC 25922 after 18 hrs in presence of FeCl3 by CLSI based broth microdilution method (reference value: 64 microM); assay type: functional; conditions: ATCC 25922, 18 h
[13] = tested on: Staphylococcus aureus; test: Antibacterial activity against Staphylococcus aureus ATCC 25923 after 18 hrs in presence of MgCl2 by CLSI based broth microdilution method (reference value: 32 microM); assay type: functional; conditions: ATCC 25923, 18 h
[14] = tested on: Escherichia coli; test: Antibacterial activity against Escherichia coli ATCC 25922 after 18 hrs in presence of KCl by CLSI based broth microdilution method (reference value: 64 microM); assay type: functional; conditions: ATCC 25922, 18 h
[15] = tested on: Escherichia coli; test: Antimicrobial activity against Escherichia coli ATCC 25922 preincubated for 6 hrs in presence of 10% mouse serum and measured after 18 hrs by CLSI-based broth microdilution assay (reference value: 64 microM); assay type: functional
[16] = tested on: Escherichia coli; test: Antimicrobial activity against Escherichia coli ATCC 25922 preincubated for 1 hr in presence of 10% mouse serum and measured after 18 hrs by CLSI-based broth microdilution assay (reference value: 64 microM); assay type: functional
[17] = tested on: Staphylococcus aureus; test: Antibacterial activity against Staphylococcus aureus ATCC 25923 after 18 hrs in presence of MgCl2 by CLSI based broth microdilution method (reference value: 4 microM); assay type: functional; conditions: ATCC 25923, 18 h
[18] = Cytotoxicity against mouse RAW264.7 cells assessed as cell proliferation at 8 uM after 1 hr by MTT assay relative to control; assay type: cell-based; conditions: read-out: Activity
[19] = tested on: Pseudomonas aeruginosa; test: Antibiofilm activity against Pseudomonas aeruginosa ATCC 27853 at 1 to 2 times of MIC after 24 hrs by crystal violet staining based assay; assay type: functional, organism-based
[20] = tested on: Staphylococcus aureus; test: Antibacterial activity against Staphylococcus aureus ATCC 25923 after 18 hrs in presence of KCl by CLSI based broth microdilution method (reference value: 4 microM); assay type: functional; conditions: ATCC 25923, 18 h
[21] = tested on: Staphylococcus aureus; test: Antibacterial activity against Staphylococcus aureus ATCC 25923 after 18 hrs in presence of NaCl by CLSI based broth microdilution method (reference value: 4 microM); assay type: functional; conditions: ATCC 25923, 18 h
[22] = tested on: Escherichia coli; test: Antimicrobial activity against Escherichia coli ATCC 25922 at 1 mM preincubated for 6 hrs in presence of 20 ug/ml chymotrypsin and measured after 18 hrs by microplate reader analysis; assay type: functional, organism-based
[23] = tested on: Staphylococcus aureus; test: Antibacterial activity against Staphylococcus aureus ATCC 25923 after 18 hrs in presence of NaCl by CLSI based broth microdilution method (reference value: 64 microM); assay type: functional; conditions: ATCC 25923, 18 h
[24] = tested on: Staphylococcus aureus; test: Antibacterial activity against Staphylococcus aureus ATCC 25923 after 18 hrs in presence of KCl by CLSI based broth microdilution method (reference value: 64 microM); assay type: functional; conditions: ATCC 25923, 18 h
[25] = Cytotoxicity against mouse RAW264.7 cells assessed as cell proliferation at 32 uM after 1 hr by MTT assay relative to control; assay type: cell-based; conditions: read-out: Activity
[26] = tested on: Staphylococcus aureus; test: Antibacterial activity against Staphylococcus aureus ATCC 25923 after 18 hrs in presence of MgCl2 by CLSI based broth microdilution method (reference value: 64 microM); assay type: functional; conditions: ATCC 25923, 18 h
[27] = tested on: Staphylococcus aureus; test: Antibacterial activity against Staphylococcus aureus ATCC 25923 after 18 hrs in presence of NaCl by CLSI based broth microdilution method (reference value: 16 microM); assay type: functional; conditions: ATCC 25923, 18 h
[28] = tested on: Staphylococcus aureus; test: Antibacterial activity against Staphylococcus aureus ATCC 25923 after 18 hrs in presence of KCl by CLSI based broth microdilution method (reference value: 16 microM); assay type: functional; conditions: ATCC 25923, 18 h
[29] = tested on: Escherichia coli; test: Antibacterial activity against Escherichia coli ATCC 25922 after 18 hrs in presence of FeCl3 by CLSI based broth microdilution method (reference value: 4 microM); assay type: functional; conditions: ATCC 25922, 18 h
[30] = tested on: Staphylococcus aureus; test: Antibacterial activity against Staphylococcus aureus ATCC 25923 after 18 hrs in presence of FeCl3 by CLSI based broth microdilution method (reference value: 16 microM); assay type: functional; conditions: ATCC 25923, 18 h
[31] = tested on: Escherichia coli; test: Antimicrobial activity against Escherichia coli ATCC 25922 preincubated for 6 hrs in presence of 10% mouse serum and measured after 18 hrs by CLSI-based broth microdilution assay (reference value: 4 microM); assay type: functional
[32] = tested on: Staphylococcus aureus; test: Antibacterial activity against Staphylococcus aureus ATCC 25923 after 18 hrs in presence of MgCl2 by CLSI based broth microdilution method (reference value: 16 microM); assay type: functional; conditions: ATCC 25923, 18 h
[33] = tested on: Escherichia coli; test: Antimicrobial activity against Escherichia coli ATCC 25922 preincubated for 1 hr in presence of 10% mouse serum and measured after 18 hrs by CLSI-based broth microdilution assay (reference value: 4 microM); assay type: functional
[34] = tested on: Escherichia coli; test: Antibacterial activity against Escherichia coli ATCC 25922 after 18 hrs in presence of NaCl by CLSI based broth microdilution method (reference value: 4 microM); assay type: functional; conditions: ATCC 25922, 18 h
[35] = tested on: Escherichia coli; test: Antibacterial activity against Escherichia coli ATCC 25922 after 18 hrs in presence of MgCl2 by CLSI based broth microdilution method (reference value: 4 microM); assay type: functional; conditions: ATCC 25922, 18 h
[36] = tested on: RAW264.7; test: Cytotoxicity against mouse RAW264.7 cells assessed as cell proliferation at 16 uM after 1 hr by MTT assay; assay type: cell-based; conditions: raw264.7, 1 h

Structure (SMILES): CCCC(=O)NC(Cc1cn(CCCC[C@H](NC(C)=O)C(=O)NCC(=O)N[C@@H](CC(C)C)C(=O)N[C@@H](CC(C)C)C(=O)N[C@H](CCCCN)C(=O)N[C@@H](CCCNC(=N)N)C(=O)N[C@H](C(=O)N[C@H](CCCCN)C(=O)N[C@H](C(=O)N[C@@H](CC(C)C)C(=O)N[C@@H](CC(C)C)C(N)=O)[C@@H](C)O)[C@@H](C)CC)nn1)C(=O)NCC(=O)N[C@@H](CC(C)C)C(=O)N[C@@H](CC(C)C)C(=O)N[C@H](CCCCN)C(=O)N[C@@H](CCCNC(=N)N)C(=O)N[C@H](C(=O)N[C@H](CCCCN)C(=O)N[C@H](C(=O)N[C@@H](CC(C)C)C(=O)N[C@@H](CC(C)C)C(N)=O)[C@@H](C)O)[C@@H](C)CC (stereo partly specified)
- MIC [1]: 128 µM
- MIC [2]: > 128 µM
- Activity [3]: inactive
- MIC [4]: > 128 µM

Structure (SMILES): CCCCCCCCCCCC(=O)NC(Cc1cn(CCCC[C@H](NC(C)=O)C(=O)NCC(=O)N[C@@H](CC(C)C)C(=O)N[C@@H](CC(C)C)C(=O)N[C@H](CCCCN)C(=O)N[C@@H](CCCNC(=N)N)C(=O)N[C@H](C(=O)N[C@H](CCCCN)C(=O)N[C@H](C(=O)N[C@@H](CC(C)C)C(=O)N[C@@H](CC(C)C)C(N)=O)[C@@H](C)O)[C@@H](C)CC)nn1)C(=O)NCC(=O)N[C@@H](CC(C)C)C(=O)N[C@@H](CC(C)C)C(=O)N[C@H](CCCCN)C(=O)N[C@@H](CCCNC(=N)N)C(=O)N[C@H](C(=O)N[C@H](CCCCN)C(=O)N[C@H](C(=O)N[C@@H](CC(C)C)C(=O)N[C@@H](CC(C)C)C(N)=O)[C@@H](C)O)[C@@H](C)CC (stereo partly specified)
- Activity [5]: Dose-dependent effect
- Activity [6]: Active
- Activity [7]: inactive

Structure (SMILES): CCCCCCCC(=O)NCC(=O)N[C@@H](CC(C)C)C(=O)N[C@@H](CC(C)C)C(=O)N[C@H](CCCCN)C(=O)N[C@@H](CCCNC(=N)N)C(=O)N[C@H](C(=O)N[C@H](CCCCN)C(=O)N[C@H](C(=O)N[C@@H](CC(C)C)C(=O)N[C@@H](CC(C)C)C(N)=O)[C@@H](C)O)[C@@H](C)CC
- MIC [8]: 128 µM
- Activity [9]: Active
- MIC [10]: 64 µM
- MIC [11]: 64 µM
- MIC [12]: 32 µM
- MIC [13]: 64 µM
- MIC [14]: 32 µM
- MIC [15]: 64 µM
- MIC [16]: 64 µM

Structure (SMILES): CCCCCCCCCCCC(=O)NCC(=O)N[C@@H](CC(C)C)C(=O)N[C@@H](CC(C)C)C(=O)N[C@H](CCCCN)C(=O)N[C@@H](CCCNC(=N)N)C(=O)N[C@H](C(=O)N[C@H](CCCCN)C(=O)N[C@H](C(=O)N[C@@H](CC(C)C)C(=O)N[C@@H](CC(C)C)C(N)=O)[C@@H](C)O)[C@@H](C)CC
- MIC [17]: 8 µM
- viability at 1 h, 8 µM [18]: < 80%
- inhibition [19]: Active
- MIC [20]: 4 µM
- MIC [21]: 4 µM

Structure (SMILES): CCCCCC(=O)NC(Cc1cn(CCCC[C@H](NC(C)=O)C(=O)NCC(=O)N[C@@H](CC(C)C)C(=O)N[C@@H](CC(C)C)C(=O)N[C@H](CCCCN)C(=O)N[C@@H](CCCNC(=N)N)C(=O)N[C@H](C(=O)N[C@H](CCCCN)C(=O)N[C@H](C(=O)N[C@@H](CC(C)C)C(=O)N[C@@H](CC(C)C)C(N)=O)[C@@H](C)O)[C@@H](C)CC)nn1)C(=O)NCC(=O)N[C@@H](CC(C)C)C(=O)N[C@@H](CC(C)C)C(=O)N[C@H](CCCCN)C(=O)N[C@@H](CCCNC(=N)N)C(=O)N[C@H](C(=O)N[C@H](CCCCN)C(=O)N[C@H](C(=O)N[C@@H](CC(C)C)C(=O)N[C@@H](CC(C)C)C(N)=O)[C@@H](C)O)[C@@H](C)CC (stereo partly specified)
- Activity [22]: Active
- MIC [23]: 128 µM
- MIC [24]: 64 µM
- viability at 1 h, 32 µM [25]: > 80%
- MIC [26]: 64 µM

Structure (SMILES): CCCCCCCC(=O)NC(Cc1cn(CCCC[C@H](NC(C)=O)C(=O)NCC(=O)N[C@@H](CC(C)C)C(=O)N[C@@H](CC(C)C)C(=O)N[C@H](CCCCN)C(=O)N[C@@H](CCCNC(=N)N)C(=O)N[C@H](C(=O)N[C@H](CCCCN)C(=O)N[C@H](C(=O)N[C@@H](CC(C)C)C(=O)N[C@@H](CC(C)C)C(N)=O)[C@@H](C)O)[C@@H](C)CC)nn1)C(=O)NCC(=O)N[C@@H](CC(C)C)C(=O)N[C@@H](CC(C)C)C(=O)N[C@H](CCCCN)C(=O)N[C@@H](CCCNC(=N)N)C(=O)N[C@H](C(=O)N[C@H](CCCCN)C(=O)N[C@H](C(=O)N[C@@H](CC(C)C)C(=O)N[C@@H](CC(C)C)C(N)=O)[C@@H](C)O)[C@@H](C)CC (stereo partly specified)
- MIC [27]: 32 µM
- MIC [28]: 16 µM
- MIC [29]: 4 µM
- MIC [30]: 8 µM
- MIC [31]: 16 µM
- MIC [32]: 16 µM
- MIC [33]: 8 µM
- MIC [34]: 8 µM
- MIC [35]: 16 µM
- Activity [36]: Toxic
